Test results: paper PMC12196235, “Enhancing the Pharmacological Properties of Triterpenes Through Acetylation: An Anticancer and Antioxidant Perspective” (Molecules, 2025)
Values joined by “and” are separate entries in the source; they are usually repeats but may differ in a detail not shown here. Identical values can stand only once. Like-named read-outs stand apart in the source and are kept apart here.

Key:
[1] = system: HeLa (human cervical epithelioid carcinoma); experiment: MTT assay, HeLa; format: cell-based; conditions: for IC50: Homo sapiens, MTT assay, HeLa, read-out: IC50 (±SD), HeLa; for Selectivity index (SI), HeLa: IC50 HDF / IC50 HeLa
Experimental: (§1) All the cell lines and mediums were obtained from the American Type Culture Collection (ATCC) supplied by LGC-Standards (Lomianki, Poland). Human cancer cell lines were cultured as follows: HeLa (human cervix carcinoma) and KB (human oral squamous carcinoma) lines were cultured in DMEM (Dulbecco’s Modified Eagle’s Medium); MCF-7 (human breast carcinoma) and A-549 (human lung carcinoma) were cultured in RPMI 1640 medium; PC-3 (human prostate carcinoma) was cultured in F-12K medium; SKOV-3 (human ovarian cystadenocarcinoma) was cultured in McCoy’s modified medium; HDF (human normal dermal fibroblasts) was cultured in Fibroblast Basal Medium. Each medium was supplemented with 10% fetal bovine serum, 1% L- glutamine and 1% penicillin/streptomycin solution. The cell lines were kept in an incubator at 37 °C.
(§2) All the tested cell lines (HeLa, KB, MCF-7, A-549, PC-3, SKOV-3 and HDF) were subjected to MTT assay. In short, this assay is based on the reaction between mitochondria enzymes (dehydrogenases) of tested cell lines and 3-(4,5-dimethylthiazol-2-yl)-2,5-diphenyltetrazolium bromide (MTT). The final product of this reaction gives violet formazan crystals. The number of live cells is proportional to the amount of formazan and is represented by the violet dye reagent. The details of the experiments are given in [19].

[2] = system: SKOV-3 (human ovarian carcinoma); experiment: MTT assay, SKOV-3; format: cell-based; conditions: for IC50: Homo sapiens, SK-OV-3, MTT assay, SKOV-3, read-out: IC50 (±SD), SKOV-3; for Selectivity index (SI), SKOV-3: IC50 HDF / IC50 SKOV-3
Experimental: as §1, §2

[3] = system: KB-VIN (multidrug resistant human epidermoid carcinoma); conditions: ref 104; cited from earlier work
[4] = system: HeLa, KB, MCF-7, A-549, PC-3 and SKOV-3; experiment: MTT assay, summary over the cancer cell lines; format: cell-based, human; conditions: for cytotoxic activity class: classification by IC50 (good ≤ 10 μM, moderate 10–30 μM, ref 83)
Experimental: as §1, §2

[5] = CUPRAC antioxidant assay; conditions: calculated from Trolox standard curve
Experimental: (§3) The results are presented as % inhibition of the copper(II) ions and Trolox equivalent calculated from the standard curve (Figure 9) and as % inhibition of the DPPH radical and Trolox equivalent, calculated from the standard curve (Figure 10).
(§4) The CUPRAC reagent (7.5 mM ethanolic 96% neocuproine solution, 10 mM CuCl2 × H2O solution and an ammonium acetate buffer of pH 7.0) and DPPH reagent (2,2-diphenyl-1-picrylhydrazyl 0.2 mM solution) were applied.
(§5) The CUPRAC method measures the reducing power of a sample by quantifying its ability to convert the Cu-neocuproine reagent complex to the Cu(I) form. In contrast, the DPPH assay relies on the ability of an antioxidant to donate a hydrogen atom or an electron to the stable DPPH radical, resulting in its reduction and subsequent color change. The results are presented as % inhibition of the copper(II) ions and Trolox equivalent calculated from the standard curve (Figure 9) and as % inhibition of the DPPH radical and Trolox equivalent, calculated from the standard curve (Figure 10). The spectroscopic detection in CUPRAC and DPPH assays was conducted with Synergy H1 Multi-Mode Microplate Reader (BioTek Instruments, Inc., Winooski, VT, USA). The details of the experiments are given in [102].

[6] = system: J774A.1 (macrophage-like cell line); conditions: ref 106; cited from earlier work
[7] = system: HDF (human dermal fibroblasts); experiment: MTT assay, normal HDF; format: cell-based; conditions: Homo sapiens, Fibroblast, read-out: IC50 (±SD), HDF
Experimental: as §1, §2

[8] = system: Hep-G2 (human hepatocellular carcinoma); conditions: cited from earlier work
[9] = system: RAW 264.7; conditions: ref 106; cited from earlier work
[10] = system: MCF-7 (human breast carcinoma); experiment: MTT assay, MCF-7; format: cell-based; conditions: for IC50: Homo sapiens, MCF7, MTT assay, MCF-7, read-out: IC50 (±SD), MCF-7; for Selectivity index (SI), MCF-7: IC50 HDF / IC50 MCF-7
Experimental: as §1, §2

[11] = system: SKOV-3; experiment: Apoptosis assay (Cell Death Detection ELISA Plus), SKOV-3; format: cell-based, human; conditions: SKOV-3, 4 h incubation, enrichment of mono- and oligonucleosomes vs negative control
Experimental: (§6) The induction of apoptosis by tested compounds was determined with Cell Death Detection ELISA Plus from Roche Diagnostics GmbH (Mannheim, Germany).
(§7) Cell Death Detection ELISA Plus is an enzyme immunoassay for determining cytoplasmic histone-associated DNA fragments (mono- and […]) after induced cell death. Cells (10^4) were pipetted into wells of 96-well plates, and test compounds were added at final concentrations of 0.1, 1.0 and 10.0 µg × mL^−1. Cells incubated in the absence of test compounds served as negative controls. After 4 h of incubation, cells were harvested by centrifugation of the plates for 10 min at 200× g. Supernatants were removed carefully, and cell pellets were resuspended in 200 µL of cell lysis buffer and incubated for 30 min at room temperature. After centrifugation of the plates (10 min at 200× g), 20 µL of cell lysates was transferred in duplicate into wells of provided streptavidin-coated microplates. Then, 80 µL of the immunoreagent containing a mixture of anti-histone-biotin monoclonal antibody and anti-DNA-peroxidase monoclonal antibody was added to each well. The microplates were covered with a provided adhesive foil and incubated for 2 h at room temperature. Thereafter, the solution in the wells was removed by tapping the microplate. The wells were rinsed three times with incubation buffer, and 100 µL of substrate (2,2′-azino-bis [3-ethylbenzothiazoline-6-sulphonic acid], ABTS) was added to each well. After 10–20 min, 100 µL of ABTS stop solution was pipetted to each well, and the absorbance was read at 405 nm (test wavelength) and 490 nm (reference wavelength). The apoptotic index was calculated based on the enrichment of mono- and oligonucleosomes according to the following equation:apoptotic index = [{A405(sample) − A490(sample)}/{A405(negative control) − A490(negative control)}]

[12] = system: A-549 (human lung carcinoma); experiment: MTT assay, A-549; format: cell-based; conditions: for IC50: Homo sapiens, A549, MTT assay, A-549, read-out: IC50 (±SD), A-549; for Selectivity index (SI), A-549: IC50 HDF / IC50 A-549
Experimental: as §1, §2

[13] = system: B16-F10 (murine melanoma); conditions: cited from earlier work
[14] = DPPH antioxidant assay; conditions: calculated from Trolox standard curve
Experimental: as §3, §4, §5

[15] = system: A-549 (human lung carcinoma); conditions: cited from earlier work
[16] = system: HT-29 (human colorectal adenocarcinoma); conditions: cited from earlier work
[17] = system: PC-3 (human prostate carcinoma); experiment: MTT assay, PC-3; format: cell-based; conditions: for IC50: Homo sapiens, MTT assay, PC-3, read-out: IC50 (±SD), PC-3; for Selectivity index (SI), PC-3: IC50 HDF / IC50 PC-3
Experimental: as §1, §2

[18] = system: KB (human oral squamous carcinoma); experiment: MTT assay, KB; format: cell-based; conditions: for IC50: Homo sapiens, MTT assay, KB; for Selectivity index (SI), KB: IC50 HDF / IC50 KB
Experimental: as §1, §2

[19] = system: PC-3; experiment: Apoptosis assay (Cell Death Detection ELISA Plus), PC-3; format: cell-based, human; conditions: PC-3, 4 h incubation, enrichment of mono- and oligonucleosomes vs negative control
Experimental: as §6, §7

[20] = system: KB (human oral squamous carcinoma); conditions: ref 104; cited from earlier work
[21] = system: CCRF-CEM, CEM (human T lymphoblastic leukemia); conditions: ref 26; read-out: anticancer IC50 (CCRF-CEM, CEM); cited from earlier work
[22] = system: SMMC-7721 (human hepatocarcinoma); design: method as in PMID 35897914; conditions: ref 27; read-out: anticancer IC50 (SMMC-7721); cited from earlier work
[23] = system: HCV (Hepatitis C virus); design: method as in PMID 26102077; conditions: ref 32; read-out: antiviral EC50 (HCV); cited from earlier work
[24] = system: HCT-116 (human colorectal carcinoma); conditions: ref 38; read-out: anticancer IC50 (HCT-116); cited from earlier work
[25] = system: SW-480 (human colon adenocarcinoma); design: method as in PMID 28981110; conditions: ref 38; read-out: anticancer IC50 (SW-480); cited from earlier work
[26] = system: NOZ (human gall bladder carcinoma); design: method as in PMID 31915810; conditions: ref 39; read-out: anticancer IC50 (NOZ); cited from earlier work
[27] = system: A-2780 (human ovarian carcinoma); design: method as in PMID 31277238; conditions: ref 40; read-out: anticancer IC50 (A-2780); cited from earlier work

CC(=O)O[C@H]1CC[C@]2(C)[C@H]3CC=C4[C@@H]5CC(C)(C)CC[C@]5(C(=O)O)CC[C@@]4(C)[C@]3(C)CC[C@H]2C1(C)C [1b, 3-O-Acetyloleanolic acid]
IC50 [1]: 0.24 µM
Selectivity index (SI), HeLa [1]: 0.79
IC50 [2]: 0.09 µM
Selectivity index (SI), SKOV-3 [2]: 2.11
IC50 [3]: 7.6 µM
cytotoxic activity class [4]: very high cytotoxic activity
Trolox Equivalent, CUPRAC Assay [5]: 0.2199 mg/mL and 0.2199 ± 0.00657 mg/mL
IC50 [6]: 16.8 µM
IC50 [7]: 0.19 µM
IC50 ([8]; ref 105, read-out: IC50 (Hep-G2)): 104 µM
IC50 [9]: 13.8 µM
IC50 [10]: 1.86 µM
Selectivity index (SI), MCF-7 [10]: 0.10
Apoptotic index (AI), SKOV-3 [11]: 6.79 (0.16)
IC50 [12]: 0.24 µM
Selectivity index (SI), A-549 [12]: 0.79
IC50 ([13]; ref 105): 64.7 µM
IC50 ([13]; ref 107): 64.7 µM
Trolox Equivalent, DPPH Assay [14]: 0.0143 ± 0.000592 mg/mL
IC50 ([15]; ref 104, read-out: IC50 (A-549)): 5.8 µM
IC50 ([16]; ref 105, read-out: IC50 (HT-29)): 148 µM
IC50 [17]: 0.11 µM
Selectivity index (SI), PC-3 [17]: 1.73
IC50 [18]: 0.36 µM
Selectivity index (SI), KB [18]: 0.53
Apoptotic index (AI), PC-3 [19]: 6.90 (0.04)
IC50 [20]: 7.6 µM

CC1(C)CC[C@]2(CO)CC[C@]3(C)C(=CC[C@@H]4[C@@]5(C)CC[C@H](O)C(C)(C)[C@@H]5CC[C@]43C)[C@@H]2C1 [2a, erythrodiol]
IC50 [1]: 54.3 µM
IC50 [2]: 18.3 µM
Selectivity index (SI), SKOV-3 [2]: 1.53
times less active than oleanolic acid 1a ([4]; HeLa, KB, MCF-7 and A-459 cell lines): 4.4–7.2 times
Trolox Equivalent, CUPRAC Assay [5]: 0.09414 mg/mL and 0.09414 ± 0.0095 mg/mL
IC50 [7]: 28 µM
IC50 ([8]; ref 24, read-out: anticancer IC50 (Hep-G2)): 27.3 µM
IC50 ([8]; ref 27, read-out: anticancer IC50 (Hep-G2)): 87.7 µM
IC50 [21]: 250 µM
IC50 [22]: 65 µM
IC50 [10]: 65.5 µM
Selectivity index (SI), MCF-7 [10]: 0.43
IC50 [12]: 63.7 µM
Selectivity index (SI), A-549 [12]: 0.44
Trolox Equivalent, DPPH Assay [14]: 0.02092 mg/mL and 0.02092 ± 0.000866 mg/mL
IC50 ([15]; cell line printed as A-459, read-out: anticancer IC50 (A-459)): 63 µM
EC50 ([16]; ref 25, read-out: anticancer EC50 (HT-29)): 48.8 µM
IC50 [17]: 21.1 µM
Selectivity index (SI), PC-3 [17]: 1.32
IC50 [18]: 66 µM
Selectivity index (SI), KB [18]: 0.42

C=C(C)[C@@H]1CC[C@]2(C(=O)O)CC[C@]3(C)[C@H](CC[C@@H]4[C@@]5(C)CC[C@H](O)C(C)(C)[C@@H]5CC[C@]43C)[C@@H]12 [4a, betulinic acid]
EC50 [23]: 11.2 µM
IC50 [1]: 27.5 µM
Selectivity index (SI), HeLa [1]: 0.72
IC50 [2]: 9.52 µM
Selectivity index (SI), SKOV-3 [2]: 2.09
cytotoxic activity class [4]: high or moderately high activity
Trolox Equivalent, CUPRAC Assay [5]: 0.07632 ± 0.00727 mg/mL
IC50 [24]: 178 µM
IC50 [7]: 19.9 µM
IC50 [21]: 30 µM
IC50 [10]: 27.9 µM
Selectivity index (SI), MCF-7 [10]: 0.71
IC50 [12]: 26.2 µM
Selectivity index (SI), A-549 [12]: 0.76
Trolox Equivalent, DPPH Assay [14]: 0.01526 ± 0.000632 mg/mL
IC50 [25]: 58 µM
IC50 ([16]; ref 38, read-out: anticancer IC50 (HT-29)): 125 µM
IC50 [17]: 10.6 µM
Selectivity index (SI), PC-3 [17]: 1.88
IC50 [26]: 30 µM
IC50 [27]: 44.5 µM
IC50 [18]: 35.2 µM
Selectivity index (SI), KB [18]: 0.56
